Reference: patent US9095594B2, “Pharmaceutical compositions comprising beta-lactam antibiotic, sulbactam and beta-lactamase inhibitor” (Wockhardt Ltd., priority 2011, dated 2015)
≈ marks a conversion by molar mass, not a printed value. Counter-ions that a name gives are not always drawn. Like-named read-outs stand apart in the source and are kept apart here.

Experiments:
Assay in all cases: Agar dilution MIC (CLSI)
Format in all cases: cell-based
Conditions in all cases: for MIC: Acinetobacter baumannii
[1] = test system: A. baumanii S-10 (ESBL strain)
Protocol: (§1) In a typical study, overnight grown bacterial cultures were diluted appropriately and inoculated on the agar media containing doubling dilutions of the antibiotic. Observation for growth or no growth was performed after 16-20 hours of incubation at 35±2° C. in ambient air.

[2] = test system: A. baumanii S-8 (ESBL strain)
Protocol: as §1

[3] = test system: A. baumanii 13304 (ESBL strain)
Protocol: as §1

[4] = test system: A. baumanii 13305 (ESBL strain)
Protocol: as §1

[5] = test system: A. baumanii S-3 (ESBL strain)
Protocol: as §1

[6] = test system: A. baumanii S-15 (ESBL strain)
Protocol: as §1

[7] = test system: A. baumanii S-4 (ESBL strain)
Protocol: as §1

[8] = test system: A. baumanii 13301 (ESBL strain)
Protocol: as §1

NC(=O)[C@@H]1CC[C@@H]2CN1C(=O)N2OS(=O)(=O)O [NXL-104, sodium salt of trans-7-oxo-6-(sulphooxy)-1,6-diazabicyclo-[3.2.1]-octane-2-carboxamide]
MIC of NXL-104 in presence of Sulbactam (4 mcg/ml) ([1]; A. baumanii S-10, Sulbactam 4 mcg/ml): 16 mg/L
MIC ([1]; alone, A. baumanii S-10, read-out: MIC): > 64 mg/L
MIC of NXL-104 in presence of Sulbactam (4 mcg/ml) ([2]; A. baumanii S-8, Sulbactam 4 mcg/ml): 16 mg/L
MIC ([2]; alone, A. baumanii S-8, read-out: MIC): > 64 mg/L
MIC of NXL-104 in presence of Sulbactam (4 mcg/ml) ([3]; A. baumanii 13304, Sulbactam 4 mcg/ml): 2 mg/L
MIC ([3]; alone, A. baumanii 13304, read-out: MIC): > 64 mg/L
MIC of NXL-104 in presence of Sulbactam (4 mcg/ml) ([4]; A. baumanii 13305, Sulbactam 4 mcg/ml): 2 mg/L
MIC ([4]; alone, A. baumanii 13305, read-out: MIC): > 64 mg/L
MIC of NXL-104 in presence of Sulbactam (4 mcg/ml) ([5]; A. baumanii S-3, Sulbactam 4 mcg/ml): 16 mg/L
MIC ([5]; alone, A. baumanii S-3, read-out: MIC): > 64 mg/L
MIC of NXL-104 in presence of Sulbactam (4 mcg/ml) ([6]; A. baumanii S-15, Sulbactam 4 mcg/ml): 16 mg/L
MIC ([6]; alone, A. baumanii S-15, read-out: MIC): > 64 mg/L
MIC of NXL-104 in presence of Sulbactam (4 mcg/ml) ([7]; A. baumanii S-4, Sulbactam 4 mcg/ml): 16 mg/L
MIC ([7]; alone, A. baumanii S-4, read-out: MIC): > 64 mg/L
MIC of NXL-104 in presence of Sulbactam (4 mcg/ml) ([8]; A. baumanii 13301, Sulbactam 4 mcg/ml): 2 mg/L
MIC ([8]; alone, A. baumanii 13301, read-out: MIC): > 64 mg/L

CC1(C)[C@H](C(=O)O)N2C(=O)C[C@H]2S1(=O)=O [Sulbactam, sulbactam]
MIC [1]: > 32 mg/L
MIC [2]: > 32 mg/L
MIC [3]: > 32 mg/L
MIC [4]: 16 mg/L (≈ 68.6 µM)
MIC [5]: > 32 mg/L
MIC [6]: > 32 mg/L
MIC [7]: > 32 mg/L
MIC [8]: > 32 mg/L
